Results taken from PMC8286840, “Identifying SARS-CoV-2 antiviral compounds by screening for small molecule inhibitors of Nsp3 papain-like protease” (Biochemical Journal, 2021).
Counter-ions that a name gives are not always drawn. Like-named read-outs stand apart in the source and are kept apart here.

Tests used:
[1] = molecular target: T1, SARS-CoV-2 PLpro (nsp3 1564–1878) (Severe acute respiratory syndrome coronavirus 2, UniProt P0DTD1); assay: biochemical; parameters: FRET-quenched peptide (Pro3) cleavage by PLpro, 10 min pre-incubation, slope over 20 min, normalised to no-compound control; details: low concentration screen, read-out: % of control remaining
[2] = molecular target: T1, SARS-CoV-2 PLpro (nsp3 1564–1878); assay: biochemical; parameters: FRET-quenched peptide (Pro3) cleavage by PLpro, 10 min pre-incubation, slope over 20 min, normalised to no-compound control; details: high concentration screen, read-out: % of control remaining

SMILES: CCN(CC)CCNC(=O)c1cc(S(C)(=O)=O)ccc1OC [Tiapride hydrochloride]
- remaining activity at 1.25 µM ([1]; Well no.=1185): 101%
- remaining activity at 3.75 µM ([2]; Well no.=1185): 100%

SMILES: C#C[C@]1(O)CC[C@H]2[C@@H]3[C@H](C)CC4=C(CCC(=O)C4)[C@H]3CC[C@@]21C [Tibolone]
- remaining activity at 1.25 µM ([1]; Well no.=1954): 97.8%
- remaining activity at 3.75 µM ([2]; Well no.=1954): 98.3%

SMILES: CCCSc1nc(N[C@@H]2C[C@H]2c2ccc(F)c(F)c2)c2nnn([C@@H]3C[C@H](OCCO)[C@@H](O)[C@H]3O)c2n1 [Ticagrelor]
- remaining activity at 1.25 µM ([1]; Well no.=4738): 105%
- remaining activity at 1.25 µM ([1]; Well no.=6329): 101%
- remaining activity at 3.75 µM ([2]; Well no.=4738): 108%
- remaining activity at 3.75 µM ([2]; Well no.=6329): 102%

SMILES: CC1(C)S[C@@H]2[C@H](NC(=O)[C@H](C(=O)O)c3ccsc3)C(=O)N2[C@H]1C(=O)O [Ticarcillin (disodium)]
- remaining activity at 1.25 µM ([1]; Well no.=7782): 105%
- remaining activity at 3.75 µM ([2]; Well no.=7782): 109%

SMILES: Clc1ccccc1CN1CCc2sccc2C1 [Ticlopidine (hydrochloride)]
- remaining activity at 1.25 µM ([1]; Well no.=6270): 107%
- remaining activity at 1.25 µM ([1]; Well no.=8213): 108%
- remaining activity at 3.75 µM ([2]; Well no.=6270): 109%
- remaining activity at 3.75 µM ([2]; Well no.=8213): 100%

SMILES: Clc1ccccc1CN1CCc2sccc2C1 [Ticlopidine]
- remaining activity at 1.25 µM ([1]; Well no.=1746): 92.5%
- remaining activity at 3.75 µM ([2]; Well no.=1746): 92.5%

SMILES: COc1ccc2cc(-c3nc(-c4ccc([S+](C)[O-])cc4)[nH]c3-c3ccncc3)ccc2c1 (centres unmarked) [Tie2 kinase inhibitor]
- remaining activity at 1.25 µM ([1]; Well no.=4965): 91%
- remaining activity at 3.75 µM ([2]; Well no.=4965): 90.7%

SMILES: O=C(O)COc1ccc(C(=O)c2cccs2)c(Cl)c1Cl [Tienilic Acid]
- remaining activity at 1.25 µM ([1]; Well no.=5851): 105%
- remaining activity at 3.75 µM ([2]; Well no.=5851): 102%

SMILES: CN(C)c1cc(NC(=O)CNC(C)(C)C)c(O)c2c1C[C@H]1C[C@H]3[C@H](N(C)C)C(O)=C(C(N)=O)C(=O)[C@@]3(O)C(O)=C1C2=O [Tigecycline]
- remaining activity at 1.25 µM ([1]; Well no.=4813): 99%
- remaining activity at 3.75 µM ([2]; Well no.=4813): 107%

SMILES: CC[C@H]1OC(=O)C[C@@H](O)[C@H](C)[C@@H](O[C@@H]2O[C@H](C)[C@@H](O)[C@H](N(C)C)[C@H]2O)[C@@H](CCN2C[C@H](C)C[C@H](C)C2)C[C@@H](C)C(=O)/C=C/C(C)=C/[C@@H]1CO[C@@H]1O[C@H](C)[C@@H](O)[C@@H](OC)[C@H]1OC [Tilmicosin]
- remaining activity at 1.25 µM ([1]; Well no.=4746): 97.6%
- remaining activity at 3.75 µM ([2]; Well no.=4746): 96.6%

SMILES: CCS(=O)(=O)CCn1c([N+](=O)[O-])cnc1C [Tinidazole]
- remaining activity at 1.25 µM ([1]; Well no.=1958): 93%
- remaining activity at 3.75 µM ([2]; Well no.=1958): 94.1%

SMILES: Clc1ccc(C(Cn2ccnc2)OCc2ccsc2Cl)c(Cl)c1 (centres unmarked) [Tioconazole]
- remaining activity at 1.25 µM ([1]; Well no.=1956): 103%
- remaining activity at 3.75 µM ([2]; Well no.=1956): 104%

SMILES: C/N=C(/NC#N)NCCSCc1csc(NC(=N)N)n1 [Tiotidine]
- remaining activity at 1.25 µM ([1]; Well no.=1877): 98.5%
- remaining activity at 3.75 µM ([2]; Well no.=1877): 98.9%

SMILES: C[N+]1(C)[C@@H]2C[C@@H](OC(=O)C(O)(c3cccs3)c3cccs3)C[C@H]1[C@@H]1O[C@@H]12 [Tiotropium (Bromide)]
- remaining activity at 1.25 µM ([1]; Well no.=7533): 96.7%
- remaining activity at 3.75 µM ([2]; Well no.=7533): 95.1%

SMILES: C[N+]1(C)[C@@H]2C[C@@H](OC(=O)C(O)(c3cccs3)c3cccs3)C[C@H]1[C@@H]1O[C@@H]12 [Tiotropium Bromide hydrate]
- remaining activity at 1.25 µM ([1]; Well no.=4912): 100%
- remaining activity at 3.75 µM ([2]; Well no.=4912): 95.8%

SMILES: C[N+]1(C)[C@@H]2C[C@@H](OC(=O)C(O)(c3cccs3)c3cccs3)C[C@H]1[C@@H]1O[C@@H]12 [Tiotropium Bromide]
- remaining activity at 1.25 µM ([1]; Well no.=2108): 102%
- remaining activity at 3.75 µM ([2]; Well no.=2108): 102%

SMILES: O=c1oc2cc(O)ccc2s1 [Tioxolone]
- remaining activity at 1.25 µM ([1]; Well no.=4952): 95.3%
- remaining activity at 3.75 µM ([2]; Well no.=4952): 91.8%

SMILES: N=C1CCCN1Cc1[nH]c(=O)[nH]c(=O)c1Cl [Tipiracil hydrochloride]
- remaining activity at 1.25 µM ([1]; Well no.=8154): 95.9%
- remaining activity at 3.75 µM ([2]; Well no.=8154): 95.8%

SMILES: O=C(O)C(=O)c1cn(Cc2ccccc2)c2ccc(-c3ccc(OC(F)(F)F)cc3)cc12 [Tiplaxtinin]
- remaining activity at 1.25 µM ([1]; Well no.=5648): 92.2%
- remaining activity at 3.75 µM ([2]; Well no.=5648): 93.4%

SMILES: CCCCS(=O)(=O)N[C@@H](Cc1ccc(OCCCCC2CCNCC2)cc1)C(=O)O [Tirofiban hydrochloride monohydrate]
- remaining activity at 1.25 µM ([1]; Well no.=5469): 95.9%
- remaining activity at 3.75 µM ([2]; Well no.=5469): 99.6%

SMILES: COc1cc2nccc(Oc3ccc(NC(=O)Nc4cc(C)on4)c(Cl)c3)c2cc1OC [Tivozanib]
- remaining activity at 1.25 µM ([1]; Well no.=2932): 96.1%
- remaining activity at 3.75 µM ([2]; Well no.=2932): 99%

SMILES: Clc1ccc2nsnc2c1NC1=NCCN1 [Tizanidine (hydrochloride)]
- remaining activity at 1.25 µM ([1]; Well no.=6612): 105%
- remaining activity at 3.75 µM ([2]; Well no.=6612): 96%

SMILES: Clc1ccc2nsnc2c1NC1=NCCN1 [Tizanidine HCl]
- remaining activity at 1.25 µM ([1]; Well no.=4851): 101%
- remaining activity at 3.75 µM ([2]; Well no.=4851): 99.7%

SMILES: Clc1ccc2nsnc2c1NC1=NCCN1 [Tizanidine.HCl]
- remaining activity at 1.25 µM ([1]; Well no.=1563): 98.4%
- remaining activity at 3.75 µM ([2]; Well no.=1563): 98%

SMILES: NC[C@H]1O[C@H](O[C@H]2[C@H](O)[C@@H](O[C@H]3O[C@H](CO)[C@@H](O)[C@H](N)[C@H]3O)[C@H](N)C[C@@H]2N)[C@H](N)C[C@@H]1O [Tobramycin (free base)]
- remaining activity at 1.25 µM ([1]; Well no.=1960): 96.2%
- remaining activity at 3.75 µM ([2]; Well no.=1960): 95.9%

SMILES: C[C@@H]1CCN(C(=O)CC#N)C[C@@H]1N(C)c1ncnc2[nH]ccc12 [Tofacitinib citrate]
- remaining activity at 1.25 µM ([1]; Well no.=5551): 98.9%
- remaining activity at 3.75 µM ([2]; Well no.=5551): 109%

SMILES: CCC1C(C)=NN=C(c2ccc(OC)c(OC)c2)c2cc(OC)c(OC)cc21 (centres unmarked) [Tofisopam]
- remaining activity at 1.25 µM ([1]; Well no.=5780): 103%
- remaining activity at 3.75 µM ([2]; Well no.=5780): 103%

SMILES: CCc1ccc(Cc2ccc3c(c2)[C@]2(OC3)O[C@H](CO)[C@@H](O)[C@H](O)[C@H]2O)cc1 [Tofogliflozin(CSG 452)]
- remaining activity at 1.25 µM ([1]; Well no.=8776): 101%
- remaining activity at 3.75 µM ([2]; Well no.=8776): 102%

SMILES: Cc1ccc(S(=O)(=O)NC(=O)NN2CCCCCC2)cc1 [Tolazamide]
- remaining activity at 1.25 µM ([1]; Well no.=1523): 93.9%
- remaining activity at 1.25 µM ([1]; Well no.=1810): 100%
- remaining activity at 3.75 µM ([2]; Well no.=1523): 94.7%
- remaining activity at 3.75 µM ([2]; Well no.=1810): 93.8%

SMILES: c1ccc(CC2=NCCN2)cc1 [Tolazoline (hydrochloride)]
- remaining activity at 1.25 µM ([1]; Well no.=6231): 104%
- remaining activity at 3.75 µM ([2]; Well no.=6231): 107%

SMILES: CCCCNC(=O)NS(=O)(=O)c1ccc(C)cc1 [Tolbutamide]
- remaining activity at 1.25 µM ([1]; Well no.=1329): 107%
- remaining activity at 1.25 µM ([1]; Well no.=1601): 99.7%
- remaining activity at 3.75 µM ([2]; Well no.=1329): 104%
- remaining activity at 3.75 µM ([2]; Well no.=1601): 97.6%

SMILES: Cc1ccc(C(=O)c2cc(O)c(O)c([N+](=O)[O-])c2)cc1 [Tolcapone]
- remaining activity at 1.25 µM ([1]; Well no.=1790): 97.4%
- remaining activity at 3.75 µM ([2]; Well no.=1790): 96%

SMILES: Cc1c(Cl)cccc1Nc1ccccc1C(=O)O [Tolfenamic acid]
- remaining activity at 1.25 µM ([1]; Well no.=1996): 97.1%
- remaining activity at 3.75 µM ([2]; Well no.=1996): 99.1%
